According to patent US20250243170A1, “REMIBRUTINIB DRUG SUBSTANCE AND DRUG PRODUCT SUBSTANTIALLY FREE OF NITROSAMINE IMPURITY” (NOVARTIS AG, priority 2024, published 2025):
Values joined by “and” are separate entries in the source; they are usually repeats but may differ in a detail not shown here. Equal entries are not always repeated. “Also recorded” adds a separate entry of the source.

Legend:
[1] = Stability of F8: nitrosamine content after 12 months storage; type: physicochemical; conditions: for growth of nitrosamine-content upon storage / change of nitrosamine-content upon storage: 12M; for Nitrosamine content in F8: double polyethylene-bags
Description: (§1) • Limit-test by LC-MS (SIM mode), AJS-ES, positive mode, SIM Ion: 483.2 [M+H]+ • Column: YMC-Triart C18, 100×3.0 mm, particle size 1.9 μm, 12 nm • Mobile phase A: Dissolve 0.315 g of Ammonium formate in 1000 ml of water, add 0.5 ml of formic acid • Mobile phase B: Methanol • Sample solvent: Methanol+0.2% (v/v) Formic acid • Sample solution: approx. 100 mg of the sample in 20 mL • Flow: 0.6 mL/min • Injection volume: 3 μL • Autosampler cooled, 8° C. • Column temperature. 80° C. • Gradient: […]
(§2) The impact of protective gas (nitrogen) for storage vs storage in non-protected atmosphere, of light exposed vs dark conditions and the effect of temperature was investigated. In addition, the stability study samples pulled after 12 M of storage at different temperature and humidity were included into the assessment.

[2] = Additional stress testing of F8 (inert gas, open vial, light); type: physicochemical; conditions: for formation of nitrosamine upon storage: several days, room temperature
Text: as §2

[3] = Stability of intermediate F8: nitrosamine content upon air exposure; type: physicochemical
Description: as §1

[4] = Accelerated predictive stability (APS) of LOU064 drug substance, open dish; type: physicochemical; conditions: for Nitrosamine impurity: open dish
Description: (§3) • Limit-test by LC-MS (SIM mode), AJS-ES, positive mode, SIM Ion: 483.2 [M+H]+ • Column: YMC-Triart C18, 100×3.0 mm, particle size 1.9 μm, 12 nm • Mobile phase A: Dissolve 0.315 g of Ammonium formate in 1000 ml of water, add 0.5 mL of formic acid • Mobile phase B: Methanol • Sample solvent: Methanol+0.2% (v/v) Formic acid • Sample solution: approx. 100 mg of the sample in 20 mL • Flow: 0.6 mL/min • Injection volume: 3 μL • Autosampler cooled, 8° C. • Column temperature. 80° C. • Gradient: […]
A statistical based approach, Accelerated Predictive Stability (APS), using the humidity modified Arrhenius equation [Waterman and al., International Journal of Pharmaceutics 293 (1-2), 101-125 (2005)] is applied to understand stability behavior and predict the retest period. […] Short studies are conducted on open dish samples of representative batch(es) of drug substance at accelerated conditions using a wide range of temperatures and humidity with the goal of reaching the specification limit for the identified retest period limiting attributes at each condition as detailed below. […] The humidity corrected Arrhenius equation reflects both the influence of the temperature, and the moisture on the kinetics of the degradation product formation. The resulting open-dish data are fitted to a humidity-corrected Arrhenius equation^1 using ASAPprime® (current version 6.0): […]
3 batches of LOU064 drug substance were placed in open dish under the protocol summarized below:
(§4) The pulled samples were analyzed by HPLC-MS as per method described in example 1 and reported below in tables 8 and 9.

[5] = APS of LOU064 drug substance, closed vessel with or without nitrogen purge; type: physicochemical
Description: as §3
Samples of batches of LOU064 drug substance were prepared in duplicated in closed container, with one sample being purged with nitrogen and the other not.
as §4

[6] = tested on: Salmonella typhimurium strain TA100; assay: Enhanced Ames Test (EAT), strain TA100
Description: (§5) N-(3-(6-amino-5-(2(methyl)(nitroso)amino)ethoxy)pyrimidin-4-yl)-5-fluoro-2-methylphenyl)-4-cyclopropyl-2-fluorobenzamide was evaluated in the EAT performed under GLP following the EMA and FDA guidance (2023) for the EAT conditions for N-nitrosamines.
(§6) In this study N-(3-(6-amino-5-(2(methyl)(nitroso)amino)ethoxy)pyrimidin-4-yl)-5-fluoro-2-methylphenyl)-4-cyclopropyl-2-fluorobenzamide was evaluated for mutations in Salmonella typhimurium strains TA98, TA100, TA1535 and TA1537 and Escherichia coli strain WP2 uvrA pKM101, both in the absence and presence of 30% rat and hamster metabolic activation (β-naphthoflavone/phenobarbital-induced rat and hamster liver post-mitochondrial S-9 fraction). The test used pre-incubation method (30 minutes). N-(3-(6-amino-5-(2(methyl)(nitroso)amino)ethoxy)pyrimidin-4-yl)-5-fluoro-2-methylphenyl)-4-cyclopropyl-2-fluorobenzamide was formulated in dimethyl sulfoxide (DMSO) at concentrations of 5, 16, 50, 160, 500, 1600 and 5000 μg/plate.
(§7) Following the recommendations of the EAT, in addition to the concurrent strain-specific positive controls, two nitrosamine positive controls, i.e. N-nitrosodiethylamine (NDEA) and N-methyl-N-nitroso-(2-phenylethyl)amine (MNPA) were used that are known to be mutagenic in the presence of S-9.

[7] = tested on: Salmonella typhimurium strains TA98, TA100, TA1535 and TA1537 and Escherichia coli strain WP2 uvrA pKM101; assay: Enhanced Ames Test (EAT), all tester strains; type: cell-based
Description: The test used pre-incubation method (30 minutes).

[8] = Formulation analyses of EAT dosing formulations in DMSO; type: physicochemical; conditions: 6 hrs at room temperature
[9] = tested on: Salmonella typhimurium strain TA1535; assay: Enhanced Ames Test (EAT), strain TA1535; conditions: TA1535, presence of hamster S-9
Description: as §5, §6, §7

[10] = tested on: Salmonella typhimurium strain TA98; assay: Enhanced Ames Test (EAT), strain TA98; conditions: TA98, presence of hamster S-9
Description: as §5, §6, §7

CNCCOc1c(N)ncnc1-c1cc(F)cc(NC(=O)c2ccc(C3CC3)cc2F)c1C [F8]
growth of nitrosamine-content upon storage ([1]; 30° C./65% RH): > 100% | growth of nitrosamine-content upon storage ([1]; 40° C./75% RH): > 100% | change of nitrosamine-content upon storage ([1]; cold (5° C.)): only a minor rise | change of nitrosamine-content upon storage ([1]; frozen (−20° C.)): no increase | Nitrosamine content in F8 ([1]; 12 months, 5° C.): 323 ppb | Nitrosamine content in F8 ([1]; 12 months, 30° C., 65% RH): 595 ppb | Nitrosamine content in F8 ([1]; 12 months, 40° C., 75% RH): 647 ppb | Nitrosamine content in F8 ([1]; 12 months, −20° C.): 276 ppb | Nitrosamine content in F8 ([1]; T0): 300 ppb | effect of exposure to light on nitrosamine formation ([2]; light exposed vs dark): slightly accelerate conversion of F8 into nitrosamine | formation of nitrosamine upon storage ([2]; open vial): rapid increase | formation of nitrosamine upon storage ([2]; stored under inert gas): only a minor, yet constant formation of nitrosamine | Nitrosamine in F8 ([3]; Analyzed after 52 h air exp.): 533 ppb | Nitrosamine in F8 ([3]; Analyzed directly after weighting the sample): 86 ppb

C=CC(=O)N(C)CCOc1c(N)ncnc1-c1cc(F)cc(NC(=O)c2ccc(C3CC3)cc2F)c1C [LOU064 drug substance, N-(3-(6-Amino-5-(2-(N-methylacrylamido)ethoxy)pyrimidin-4-yl)-5-fluoro-2-methylphenyl)-4-cyclopropyl-2-fluorobenzamide]
stability behavior of the nitrosamine impurity ([4]; all APS open dish conditions): stable | Nitrosamine impurity ([4]; 50° C., 75% RH, 14 days): 74.9 ppb | Nitrosamine impurity ([4]; 50° C., 75% RH, 21 days): 75.8 ppb | Nitrosamine impurity ([4]; 50° C., 75% RH, 28 days): 106.5 ppb and 106.8 ppb | Nitrosamine impurity ([4]; 60° C., 11% RH, 21 days): 87.1 ppb | Nitrosamine impurity ([4]; 60° C., 11% RH, 28 days): 113.5 ppb | Nitrosamine impurity ([4]; 60° C., 50% RH, 14 days): 77.0 ppb | Nitrosamine impurity ([4]; 60° C., 50% RH, 28 days): 106.6 ppb | Nitrosamine impurity ([4]; 60° C., 75% RH, 14 days): 69.8 ppb | Nitrosamine impurity ([4]; 60° C., 75% RH, 21 days): 82.7 ppb | Nitrosamine impurity ([4]; 60° C., 75% RH, 28 days): 119.1 ppb | Nitrosamine impurity ([4]; 70° C., 31% RH, 14 days): 77.9 ppb | Nitrosamine impurity ([4]; 70° C., 31% RH, 28 days): 113.3 ppb | Nitrosamine impurity ([4]; 70° C., 50% RH, 21 days): 83.2 ppb | Nitrosamine impurity ([4]; 70° C., 50% RH, 28 days): 108.3 ppb | Nitrosamine impurity ([4]; 70° C., 75% RH, 14 days): 82.6 ppb | Nitrosamine impurity ([4]; 70° C., 75% RH, 21 days): 83.2 ppb | Nitrosamine impurity ([4]; 80° C., 51% RH, 7 days): 105.3 ppb | Nitrosamine impurity ([4]; 80° C., 51% RH, 21 days): 75.5 ppb | Nitrosamine impurity ([4]; initial, 0 days): 99.1 ppb | nitrosamine, stored closed under nitrogen versus closed without nitrogen ([5]; 60-80° C., up to 27 days): no difference observed beyond analytical variability | Nitrosamine without Nitrogen purge ([5]; 60° C., 21 days): 72.5 ppb | nitrosamine with Nitrogen purge ([5]; 60° C., 21 days): 86.5 ppb | Nitrosamine without Nitrogen purge ([5]; 60° C., 27 days): 109.8 ppb | nitrosamine with Nitrogen purge ([5]; 60° C., 27 days): 110.4 ppb | Nitrosamine without Nitrogen purge ([5]; 70° C., 21 days): 67.0 ppb | nitrosamine with Nitrogen purge ([5]; 70° C., 21 days): 76.6 ppb | Nitrosamine without Nitrogen purge ([5]; 70° C., 27 days): 116.0 ppb | nitrosamine with Nitrogen purge ([5]; 70° C., 27 days): 109.4 ppb | Nitrosamine without Nitrogen purge ([5]; 80° C., 21 days): 59.6 ppb | nitrosamine with Nitrogen purge ([5]; 80° C., 21 days): 54.8 ppb | Nitrosamine without Nitrogen purge ([5]; 80° C., 27 days): 114.7 ppb | nitrosamine with Nitrogen purge ([5]; 80° C., 27 days): 119.2 ppb | Nitrosamine without Nitrogen purge ([5]; initial, 0 days): 99.1 ppb | nitrosamine with Nitrogen purge ([5]; initial, 0 days): 99.1 ppb

CCN(CC)N=O [NDEA, N-nitrosodiethylamine, reference compound]
increase in revertant numbers ([6]; TA100, presence of 30% rat S-9): > 2 fold

Cc1c(NC(=O)c2ccc(C3CC3)cc2F)cc(F)cc1-c1ncnc(N)c1OCCN(C)N=O [N-(3-(6-amino-5-(2(methyl)(nitroso)amino)ethoxy)pyrimidin-4-yl)-5-fluoro-2-methylphenyl)-4-cyclopropyl-2-fluorobenzamide]
mutagenicity in the presence of rat S-9 ([7]; 30% rat S-9): not mutagenic | Enhanced Ames Test (EAT) result ([7]; GLP, EMA and FDA guidance (2023) EAT conditions for N-nitrosamines, pre-incubation 30 minutes, 5-5000 μg/plate): positive; also recorded: mutagenic under sensitive metabolic conditions | mutagenicity without metabolic activation ([7]; absence of S-9): not mutagenic | Precipitation observed at ([7]; all tester strains, absence and presence of S-9, formulated in DMSO): 1600 μg/plate and/or 5000 μg/plate | increase in revertant numbers ([6]; TA100, presence of hamster S-9): ≥ 2 fold | stability and homogenicity in the formulations [8]: demonstrated stability and homogenicity | increase in revertant numbers [9]: ≥ 3 fold

CN(CCc1ccccc1)N=O [MNPA, N-methyl-N-nitroso-(2-phenylethyl)amine]
increase in revertant numbers [10]: up to 1.9 fold
